Experimental data: patent US20200131196A1 (Mount Tam Therapeutics, Inc., priority 2017, published 2020)
Like-named read-outs stand apart in the source and are kept apart here.

Key:
MES-SA = assay: OncoPanel cell proliferation assay, MES-SA; format: cell-based, human
Experimental: (§1) Cells were grown in RPMI 1640, 10% FBS, 2 mM L-alanyl-L-glutamine, 1 mM Na pyruvate, or a special medium. Cells were seeded into 384-well plates and incubated in a humidified atmosphere of 5% CO2 at 37° C. Compounds were added the day following cell seeding. At the same time, a time zero untreated cell plate was generated. After a 3-day incubation period, cells were fixed and stained to allow fluorescence imaging of nuclei. Compounds (1 mM stock solutions) were serially diluted in half-log steps from the highest test concentration ([…]), and assayed over 10 concentrations with a maximum assay concentration of 0.1% DMSO. Automated fluorescence microscopy was carried out using a Molecular Devices ImageXpress Micro XL high-content imager, and images were collected with a 4× objective. 16-bit TIFF images were acquired and analyzed with MetaXpress 5.1.0.41 software.
(§2) Cell proliferation was measured by the fluorescence intensity of an incorporated nuclear dye. The output is referred to as the relative cell count, where the measured nuclear intensity is transformed to percent of control (POC) using the following formula: […]
(§3) Cellular response parameters were calculated using nonlinear regression to a sigmoidal single-site dose response model:
(§4) EC50 is the test compound concentration at the curve inflection point or half the effective response (parameter C of the fitted curve solution). GI50 is the concentration needed to reduce the observed growth by half (midway between the curve maximum and the time zero value). “Cell Count Activity Area” is an estimate of the integrated area above the curve (Barretina, et al. The Cancer Cell Line Encyclopedia enables predictive modelling of anticancer drug sensitivity. Nature 483: 603-607). […] In rare instances, values <0 or >10 may be observed. […] Curve-fitting, calculations, and report generation was performed using a custom data reduction engine and MathIQ based software (AIM).

SNU-C2B = assay: OncoPanel cell proliferation assay, SNU-C2B; format: cell-based, human
Experimental: as §1, §2, §3, §4

SW579 = assay: OncoPanel cell proliferation assay, SW579; format: cell-based, human
Experimental: as §1, §2, §3, §4

TF-1 = assay: OncoPanel cell proliferation assay, TF-1; format: cell-based, human
Experimental: as §1, §2, §3, §4

U-138MG = assay: OncoPanel cell proliferation assay, U-138MG; format: cell-based, human
Experimental: as §1, §2, §3, §4

RKOE6 = assay: OncoPanel cell proliferation assay, RKOE6
Experimental: (§5) Cells were seeded into 384-well plates and incubated in a humidified atmosphere of 5% CO2 at 37° C. Compounds were added the day following cell seeding. At the same time, a time zero untreated cell plate was generated. After a 3-day incubation period, cells were fixed and stained to allow fluorescence imaging of nuclei. Compounds (1 mM stock solutions) were serially diluted in half-log steps from the highest test concentration (1 micromol), and assayed over 10 concentrations with a maximum assay concentration of 0.1% DMSO. Automated fluorescence microscopy was carried out using a Molecular Devices ImageXpress Micro XL high-content imager, and images were collected with a 4× objective. 16-bit TIFF images were acquired and analyzed with MetaXpress 5.1.0.41 software.
(§6) GI50 is the concentration needed to reduce the observed growth by half (midway between the curve maximum and the time zero value). […] In rare instances, values <0 or >10 may be observed. […] Curve-fitting, calculations, and report generation was performed using a custom data reduction engine and MathIQ based software (AIM).

SHP-77 = assay: OncoPanel cell proliferation assay, SHP-77
Experimental: as §5, §6

[1] = Homo sapiens, read-out: Cell Count EC50
[2] = Homo sapiens, read-out: Cell Count GI50
[3] = Homo sapiens, read-out: Cell Count IC50

SMILES: CO[C@H]1C[C@@H]2CC[C@@H](C)[C@@](O)(O2)C(=O)C(=O)N2CCCC[C@H]2C(=O)O[C@H]([C@H](C)C[C@H]2C[C@H]3C[C@@H]2C[C@@H]3O)CC(=O)[C@H](C)/C=C(\C)[C@@H](O)[C@@H](OC)C(=O)[C@H](C)C[C@H](C)/C=C/C=C/C=C/1C [Formula II, C37-[(1R,2S,4R,5S)-5-hyhroxybicyclo[2.2.1]heptane] rapamycin]
- Cell Count Activity Area (MES-SA): 4.81
- Relative cell count (%) Mean (MES-SA; 1.00E+00 microM): 26.6%
- Relative cell count (%) Mean (MES-SA; 1.00E-01 microM): 31.4%
- Relative cell count (%) Mean (MES-SA; 1.00E-02 microM): 43.5%
- Relative cell count (%) Mean (MES-SA; 1.00E-03 microM): 71.1%
- Relative cell count (%) Mean (MES-SA; 1.01E-04 microM): 107.7%
- Relative cell count (%) Mean (MES-SA; 3.16E-01 microM): 26.5%
- Relative cell count (%) Mean (MES-SA; 3.17E-02 microM): 35.6%
- Relative cell count (%) Mean (MES-SA; 3.17E-03 microM): 53.2%
- Relative cell count (%) Mean (MES-SA; 3.18E-04 microM): 90.9%
- Relative cell count (%) Mean (MES-SA; 3.18E-05 microM): 105.0%
- EC50 (MES-SA; [1]): 1.17 nM
- GI50 (MES-SA; [2]): 1.96 nM
- IC50 (MES-SA; [3]): 2.74 nM
- Cell Count Activity Area (SNU-C2B): 2.73
- Relative cell count (%) Mean (SNU-C2B; 1.00E+00 microM): 74.9%
- Relative cell count (%) Mean (SNU-C2B; 1.00E-01 microM): 76.2%
- Relative cell count (%) Mean (SNU-C2B; 1.00E-02 microM): 79.1%
- Relative cell count (%) Mean (SNU-C2B; 1.00E-03 microM): 74.1%
- Relative cell count (%) Mean (SNU-C2B; 1.01E-04 microM): 97.1%
- Relative cell count (%) Mean (SNU-C2B; 3.16E-01 microM): 66.6%
- Relative cell count (%) Mean (SNU-C2B; 3.17E-02 microM): 69.5%
- Relative cell count (%) Mean (SNU-C2B; 3.17E-03 microM): 76.3%
- Relative cell count (%) Mean (SNU-C2B; 3.18E-04 microM): 88.6%
- Relative cell count (%) Mean (SNU-C2B; 3.18E-05 microM): 106.6%
- EC50 (SNU-C2B; [1]): 0.179 nM
- GI50 (SNU-C2B; [2]): 3.16 nM
- IC50 (SNU-C2B; [3]): > 1000 nM
- Cell Count Activity Area (SW579): 4.51
- Relative cell count (%) Mean (SW579; 1.00E+00 microM): 43.1%
- Relative cell count (%) Mean (SW579; 1.00E-01 microM): 43.4%
- Relative cell count (%) Mean (SW579; 1.00E-02 microM): 51.1%
- Relative cell count (%) Mean (SW579; 1.00E-03 microM): 64.1%
- Relative cell count (%) Mean (SW579; 1.01E-04 microM): 82.8%
- Relative cell count (%) Mean (SW579; 3.16E-01 microM): 40.8%
- Relative cell count (%) Mean (SW579; 3.17E-02 microM): 49.9%
- Relative cell count (%) Mean (SW579; 3.17E-03 microM): 50.2%
- Relative cell count (%) Mean (SW579; 3.18E-04 microM): 66.2%
- Relative cell count (%) Mean (SW579; 3.18E-05 microM): 86.0%
- EC50 (SW579; [1]): 0.204 nM
- GI50 (SW579; [2]): 1.06 nM
- IC50 (SW579; [3]): 4.52 nM
- Cell Count Activity Area (TF-1): 1.08
- Relative cell count (%) Mean (TF-1; 1.00E+00 microM): 80.8%
- Relative cell count (%) Mean (TF-1; 1.00E-01 microM): 80.1%
- Relative cell count (%) Mean (TF-1; 1.00E-02 microM): 82.8%
- Relative cell count (%) Mean (TF-1; 1.00E-03 microM): 88.7%
- Relative cell count (%) Mean (TF-1; 1.01E-04 microM): 93.1%
- Relative cell count (%) Mean (TF-1; 3.16E-01 microM): 79.6%
- Relative cell count (%) Mean (TF-1; 3.17E-02 microM): 81.7%
- Relative cell count (%) Mean (TF-1; 3.17E-03 microM): 80.8%
- Relative cell count (%) Mean (TF-1; 3.18E-04 microM): 89.0%
- Relative cell count (%) Mean (TF-1; 3.18E-05 microM): 94.4%
- EC50 (TF-1; [1]): > 1000 nM
- GI50 (TF-1; [2]): > 1000 nM
- IC50 (TF-1; [3]): > 1000 nM
- EC50 (U-138MG; Homo sapiens, U138-MG, U-138 MG, CNS, Glioblastoma, summary Table 5, read-out: EC50): 1.4 nM
- EC50 (U-138MG; Homo sapiens, U138-MG, U-138MG, read-out: Cell Count EC50): 1.44 nM
- GI50 (U-138MG; Homo sapiens, U138-MG, U-138MG, read-out: Cell Count GI50): 23 nM
- IC50 (U-138MG; Homo sapiens, U138-MG, U-138MG, read-out: Cell Count IC50): > 1000 nM
- Cell Count Activity Area (U-138MG; U-138MG): 2.59
- Relative cell count (%) Mean (U-138MG; U-138MG, 1.00E+00 microM): 60.4%
- Relative cell count (%) Mean (U-138MG; U-138MG, 1.00E-01 microM): 67.9%
- Relative cell count (%) Mean (U-138MG; U-138MG, 1.00E-02 microM): 76.4%
- Relative cell count (%) Mean (U-138MG; U-138MG, 1.00E-03 microM): 74.8%
- Relative cell count (%) Mean (U-138MG; U-138MG, 1.01E-04 microM): 87.7%
- Relative cell count (%) Mean (U-138MG; U-138MG, 3.16E-01 microM): 65.0%
- Relative cell count (%) Mean (U-138MG; U-138MG, 3.17E-02 microM): 69.1%
- Relative cell count (%) Mean (U-138MG; U-138MG, 3.17E-03 microM): 73.8%
- Relative cell count (%) Mean (U-138MG; U-138MG, 3.18E-04 microM): 78.5%
- Relative cell count (%) Mean (U-138MG; U-138MG, 3.18E-05 microM): 87.8%
- EC50 (RKOE6; Homo sapiens, RKOE6, read-out: Cell Count EC50): 1.13 nM
- GI50 (RKOE6; Homo sapiens, RKOE6, read-out: Cell Count GI50): 5.57 nM
- IC50 (RKOE6; Homo sapiens, RKOE6, read-out: Cell Count IC50): 14.2 nM
- Cell Count Activity Area (RKOE6; RKOE6): 3.66
- Relative cell count (%) Mean (RKOE6; RKOE6, 1.00E+00 microM): 40.1%
- Relative cell count (%) Mean (RKOE6; RKOE6, 1.00E-01 microM): 43.1%
- Relative cell count (%) Mean (RKOE6; RKOE6, 1.00E-02 microM): 52.2%
- Relative cell count (%) Mean (RKOE6; RKOE6, 1.00E-03 microM): 64.1%
- Relative cell count (%) Mean (RKOE6; RKOE6, 1.01E-04 microM): 94.2%
- Relative cell count (%) Mean (RKOE6; RKOE6, 3.16E-01 microM): 43.1%
- Relative cell count (%) Mean (RKOE6; RKOE6, 3.17E-02 microM): 49.1%
- Relative cell count (%) Mean (RKOE6; RKOE6, 3.17E-03 microM): 65.3%
- Relative cell count (%) Mean (RKOE6; RKOE6, 3.18E-04 microM): 84.4%
- Relative cell count (%) Mean (RKOE6; RKOE6, 3.18E-05 microM): 98.6%
- EC50 (SHP-77; Homo sapiens, SHP77, read-out: Cell Count EC50): > 1000 nM
- GI50 (SHP-77; Homo sapiens, SHP77, read-out: Cell Count GI50): > 1000 nM
- IC50 (SHP-77; Homo sapiens, SHP77, read-out: Cell Count IC50): > 1000 nM
- Cell Count Activity Area (SHP-77; SHP-77): 0.76
- Relative cell count (%) Mean (SHP-77; SHP-77, 1.00E+00 microM): 67.9%
- Relative cell count (%) Mean (SHP-77; SHP-77, 1.00E-01 microM): 79.9%
- Relative cell count (%) Mean (SHP-77; SHP-77, 1.00E-02 microM): 96.8%
- Relative cell count (%) Mean (SHP-77; SHP-77, 1.00E-03 microM): 96.1%
- Relative cell count (%) Mean (SHP-77; SHP-77, 1.01E-04 microM): 95.8%
- Relative cell count (%) Mean (SHP-77; SHP-77, 3.16E-01 microM): 75.2%
- Relative cell count (%) Mean (SHP-77; SHP-77, 3.17E-02 microM): 88.0%
- Relative cell count (%) Mean (SHP-77; SHP-77, 3.17E-03 microM): 92.3%
- Relative cell count (%) Mean (SHP-77; SHP-77, 3.18E-04 microM): 90.6%
- Relative cell count (%) Mean (SHP-77; SHP-77, 3.18E-05 microM): 98.5%
